Read-outs that look alike come from different tables or passages of the source.
Target: T1, hVR1 receptors (Homo sapiens, UniProt Q8NER1)
T1 construct: expressed in transfected cells; host or cells: HEK293 cells (membranes)
Experiment: [3H] RTX Binding Assay (inhibition of [3H] RTX binding to membranes of HEK293 cells transfected with human VR1)
Protocol: Iodinated RTX derivatives of the present invention were tested for their ability to inhibit the binding of [^3H] RTX to hVR1 receptors in a [^3H] RTX Binding Assay.
HEK293 cells were transfected with human VRI vanilloid receptors, as described in U.S. patent application Ser. No. 09/292700 to Dubin, A., et. al, filed on Apr. 15, 1999 (herein incorporated by reference), and washed with Hank's Balanced Salt Solution, dissociated with cell dissocation buffer (Sigma), and then centrifuged at 1000 x g for 5 min. Cell pellets were homogenized in cold 20 mM HEPES buffer, pH 7.4, containing 5.8 mM NaCl, 320 mM sucrose, 2 mM MgCl2, […] and 5 mM KCl and centrifuged at 1000 x g for 15 min. The resultant supernate was then centrifuged at 40,000 x g for 15 min. The pelleted membranes were kept in an −80° C. freezer.
The assay procedure was modified from that described in Szallasi, A. and Blumberg, P. M., “[^3H] Resiniferatoxin binding by the vanilloid receptor: specific-related differences, effect of temperature and sulfhydryl reagents” (Naunyn-Schmiedeberg's Arch. Pharmacol., 1993, 347, 84-91). Briefly, about 120 μg protein/ml from membranes were incubated with indicated concentrations of [^3H] RTX in 0.5 ml of the HEPES buffer (pH 7.4) containing 0.25 mg/mL fat acid-free bovine serum albumin at 37° C. for 60 min. The reaction mixture was then cooled to 4° C., added 0.1 mg α1-acid glycoprotein to each sample and incubated at 4° C. for 15 min. The samples were centrifuged at 18500 x g for 15 min. The tip of the microcentrifuge tube containing the pellet was cut off. Bound radioactivity was quantified by scintillation counting. Non-specific binding was tested in the presence of 200 nM unlabeled RTX.
Membrane Incubation with [^3H] RTX and lodinated RTX Derivatives
Membranes were incubated with [^3H] RTX (0.4 nM) and varying concentrations of iodinated RTX derivatives at 37° C. for 60 min. […] RTX binding.

T1 sequence (Q8NER1 whole entry): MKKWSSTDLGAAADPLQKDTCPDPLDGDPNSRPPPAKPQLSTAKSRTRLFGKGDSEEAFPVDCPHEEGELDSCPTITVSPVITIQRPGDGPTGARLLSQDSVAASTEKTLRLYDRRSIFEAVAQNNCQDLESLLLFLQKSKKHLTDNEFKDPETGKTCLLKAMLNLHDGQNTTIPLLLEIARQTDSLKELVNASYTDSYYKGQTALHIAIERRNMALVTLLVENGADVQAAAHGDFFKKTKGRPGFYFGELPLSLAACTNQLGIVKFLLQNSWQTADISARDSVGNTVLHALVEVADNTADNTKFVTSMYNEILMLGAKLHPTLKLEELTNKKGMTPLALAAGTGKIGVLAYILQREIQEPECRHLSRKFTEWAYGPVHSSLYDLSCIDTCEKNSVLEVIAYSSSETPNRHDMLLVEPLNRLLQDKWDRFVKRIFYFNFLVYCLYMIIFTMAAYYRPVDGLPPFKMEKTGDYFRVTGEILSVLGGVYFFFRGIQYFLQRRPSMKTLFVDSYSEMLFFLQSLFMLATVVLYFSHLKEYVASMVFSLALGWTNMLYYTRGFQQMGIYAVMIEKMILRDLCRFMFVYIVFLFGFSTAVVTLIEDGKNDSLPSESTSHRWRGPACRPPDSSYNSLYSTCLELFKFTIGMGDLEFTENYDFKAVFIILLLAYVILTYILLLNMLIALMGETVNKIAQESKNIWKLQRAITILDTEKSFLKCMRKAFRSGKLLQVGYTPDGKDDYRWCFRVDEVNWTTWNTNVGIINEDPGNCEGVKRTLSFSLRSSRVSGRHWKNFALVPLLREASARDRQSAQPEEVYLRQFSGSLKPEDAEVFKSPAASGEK

Compound | IC50 | IC50 ([3H] RTX 0.4 nM, 37° C. for 60 min, HEK293 membranes, two experiments, each point in duplicate, read-out: IC50 Value for Binding to a hVR1 Receptor)
C=C(C)C12CC(C)C34OC(Cc5ccccc5)(OC1C3C=C(COC(=O)Cc1cc(OC)c(O)cc1I)CC1(O)C(=O)C(C)=CC14)O2 (stereo not drawn) [Compound 2, 9,13,14-Orthophenylacetylresiniferonyl-20-(3-hydroxy-4-methoxy-6-iodophenylacetate)] | 0.22 ± 0.03 nM | 
C=C(C)[C@]12C[C@@H](C)[C@@]34O[C@](Cc5ccccc5)(O[C@@H]1[C@@H]3C=C(COC(=O)Cc1ccc(O)c(OC)c1)C[C@]1(O)C(=O)C(C)=C[C@@H]41)O2 [RTX, resiniferatoxin] |  | 0.09 ± 0.12 nM
C=C(C)C12CC(C)C34OC(Cc5ccccc5)(OC1C3C=C(COC(=O)Cc1cc(OC)c(OC(C)=O)cc1I)CC1(O)C(=O)C(C)=CC14)O2 (stereo not drawn) [Compound 1, 9,13,14-Orthophenylacetylresiniferonyl-20-(3-acetoxy-4-methoxy-6-Iodophenylacetate)] | 0.31 ± 0.06 nM | 

From US7112685B2, “Labeled resiniferatoxin derivatives” (Ortho-McNeil Pharmaceutical, Inc., priority 2000, dated 2006)
